“Also recorded” adds a separate entry of the source. Bridges are numbered along the chain shown (N, C = ends).
Key:
BBB [1] = test system: BBB; set-up: method as in 3 sources, ref 49 = [49]; PMID 12754091; doi:10.1016/s0361-9230(03)00043-1; 49. Borlongan CV , Emerich DF . Facilitation of drug entry into the CNS via transient permeation of blood brain barrier: laboratory and preliminary clinical evidence from bradykinin receptor agonist, ||| ref 50 = [50]; PMID 22524793; doi:10.1021/mp3000937; 50. Zwanziger D , Hackel D , Staat C , Böcker A , Brack A , Beyermann M , A peptidomimetic tight junction modulator to improve regional analgesia . Mol Pharm . 2012; 9 : 1785 – 94 . 22524793 10.1021/ ||| ref 43-45 = [43]; PMID 25307218; doi:10.1016/bs.apha.2014.06.002; 43. Doolittle ND , Muldoon LL , Culp AY , Neuwelt EA . Delivery of chemotherapeutics across the blood-brain barrier: challenges and advances . Adv Pharmacol . 2014; 71 : 203 – 43 . 25307218 10.1016/b || [44]; 44. Smith QR . Quantitation of Blood-Brain Barrier Permeability . In: Neuwelt EA , editor. Implications of the Blood-Brain Barrier and Its Manipulation: Volume 1 Basic Science Aspects . Boston, MA : S || [45]; PMID 3930991; doi:10.1227/00006123-198509000-00004; 45. Neuwelt EA , Barnett PA , McCormick CI , Frenkel EP , Minna JD . Osmotic blood-brain barrier modification: monoclonal antibody, albumin, and methotrexate delivery to cerebrospinal fluid and brain; details: hypertonic mannitol solution; cited from earlier work
[2] = test system: blood-brain barrier (BBB); details: cited from earlier work
From the text: In addition, Gd-DTPA delivery to the brain was enhanced when co-administered with ADTC5 in living mice upon detection with magnetic resonance imaging (MRI). […] Different cadherin peptides produced different durations of the BBB opening for different sizes of del ...

EC1 domain of E-cadherin = details: cited from earlier work
From the text: The BBB paracellular porosity can be magnified by Ala-Asp-Thr (ADT) and His-Ala-Val (HAV) peptides that were derived from cadherin sequences to inhibit cadherin-cadherin interactions. The ADT and HAV peptides were designed from the amino acid sequences of the bulge and grove regions in the cadherin EC1 domain, respectively. As BBB modulators (BBBMs), both ADT and/or HAV peptides enhanced brain depositions of various sizes of molecules to the brain parenchyma such as IRdye 800CW, ^3H-daunomycin, adenanthin, or gadolinium-diethylenetriaminepentacetate (Gd-DTPA or gadopent ... || Figure 6. The proposed mechanisms of binding for Ala-Asp-Thr (ADT) and His-Ala-Val (HAV) peptides to extracellular-1 (EC1) domain of cadherin to inhibit cadherin-cadherin interactions. (A) A model to represent cadherin-to-cadherin interactions in the paracellular pathway at the adherens junction. First is the cis-interaction of EC1 and EC2 on two cadherin proteins that are protruding from one side of cell membranes. Second is the trans-interaction of EC1-EC1 from two cadherins that reside in two opposite membranes; (B) the EC1-EC1 interaction with domain swapping between the N-terminal Trp2 an ... || We hypothesized that HAV and ADT peptides prevent cadherin-cadherin interactions by binding to EC1 in the BBB adherens junctions (Figure 6C and D). Cadherin peptides disrupt the integrity of cell-cell adhesion in dynamics and reversible fashion in paracellular pathways of the BBB. Thus, the NMR and molecular docking experiments were carried out to determine the EC1 binding properties of ADT peptides.

BBB [3] = details: in vivo; cited from earlier work
From the text: As BBBMs, the in vivo activities of ADT and HAV peptides to modulate the BBB were transient and reversible. […] Different cadherin peptides produced different durations of the BBB opening for different sizes of del ...

[4] = target: 15N-labeled extracellular-1 (EC1) domain of human E-cadherin (human, UniProt P12830 155-367, 15N-labeled); assay: NMR titration; 1H-15N HSQC (600 MHz) of 15N-labeled EC1 titrated with peptide; 20.0 mM potassium phosphate, 5.0 mM DTT, pH 6.0, 6% D2O; chemical shift perturbation; Kd from the titration curve of a single residue (Ile53 or Leu21); details: both partners purified
15N-labeled extracellular-1 (EC1) domain of human E-cadherin, sequence (P12830 155-367): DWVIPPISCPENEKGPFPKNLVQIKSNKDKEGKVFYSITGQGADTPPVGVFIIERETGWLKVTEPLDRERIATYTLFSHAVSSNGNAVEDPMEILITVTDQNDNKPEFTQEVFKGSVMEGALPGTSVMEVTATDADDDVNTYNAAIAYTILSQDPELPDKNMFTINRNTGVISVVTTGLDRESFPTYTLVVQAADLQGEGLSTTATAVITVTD

Which “BBB paracellular porosity by osmotic disruption” value (BBB [1]) does the source give for `OC[C@@H](O)[C@@H](O)[C@H](O)[C@H](O)CO` [mannitol] here?
Its value is “increase paracellular porosity of the intercellular junctions”.

What does the source list for “Ac-SHAVSS-NH2 [HAV6, reference compound]”?
delivery of mAb to brain ([2]; 150 kDa mAb): could not deliver mAb when administered together; duration of BBB opening for transport of Gd-DTPA ([2]; Gd-DTPA): less than 45 min; delivery of Galbumin to brain ([2]; delay in the administration of HAV6 and Galbumin): could not deliver Galbumin when there was a delay in the administration of HAV6 and Galbumin; EC1 binding site location (EC1 domain of E-cadherin): dock on the surface of EC1 that interacts with the EC2 surface from a neighboring cadherin protein; inflammation and astrogliosis (BBB [3]): did not induce inflammation and astrogliosis

Which results are given for “Cyclo(1,6)Ac-CSHAVC-NH2 (disulfide) [cHAVc3]”?
EC1 binding and effect on cis-cadherin interactions (EC1 domain of E-cadherin): increased the porosity of the paracellular route through binding to the EC1 domain followed by disruption of the cis-cadherin interactions; EC1 binding site location (EC1 domain of E-cadherin): found at the opposite side of ADT cyclic 5 (ADTC5) binding site; also recorded: dock on the surface of EC1 that interacts with the EC2 surface from a neighboring cadherin protein; also recorded: binds to the opposite side of ADTC5-binding site

B1: ADTC9 (peptide)
peptide: Ac-CDTPPYC-NH2
modifications: disulfide 1-7
SMILES: CC(=O)N[C@H]1CSSC[C@@H](C(N)=O)NC(=O)[C@H](Cc2ccc(O)cc2)NC(=O)[C@@H]2CCCN2C(=O)[C@@H]2CCCN2C(=O)[C@H]([C@@H](C)O)NC(=O)[C@H](CC(=O)O)NC1=O
notes: Cyclo(1,7)Ac-CDTPPYC-NH2; derivative of ADTC5 with Val6 replaced by Tyr6; source: synthetic peptide (Fmoc solid-phase synthesis, HPLC purified, cyclized by air oxidation)
Which Kd [4] does the source give for B1 here?
The Kd was 181 µM.

B2: ADTC7 (peptide)
peptide: Ac-CDTPPEC-NH2
modifications: disulfide 1-7
SMILES: CC(=O)N[C@H]1CSSC[C@@H](C(N)=O)NC(=O)[C@H](CCC(=O)O)NC(=O)[C@@H]2CCCN2C(=O)[C@@H]2CCCN2C(=O)[C@H]([C@@H](C)O)NC(=O)[C@H](CC(=O)O)NC1=O
notes: Cyclo(1,7)Ac-CDTPPEC-NH2; derivative of ADTC5 with Val6 replaced by Glu6; source: synthetic peptide (Fmoc solid-phase synthesis, HPLC purified, cyclized by air oxidation)
With B2 as the molecule, how does the Kd [4] read?
Its Kd is 64 µM.

B3: Ala-Asp-Thr Cyclic 5 (ADTC5) (peptide)
peptide: Ac-CDTPPVC-NH2
modifications: disulfide 1-7
SMILES: CC(=O)N[C@H]1CSSC[C@@H](C(N)=O)NC(=O)[C@H](C(C)C)NC(=O)[C@@H]2CCCN2C(=O)[C@@H]2CCCN2C(=O)[C@H]([C@@H](C)O)NC(=O)[C@H](CC(=O)O)NC1=O
notes: Cyclo(1,7)Ac-CDTPPVC-NH2; ADT peptide designed from the bulge region of the cadherin EC1 domain; also called ADT cyclic 5; source: synthetic peptide (Fmoc solid-phase synthesis, HPLC purified, cyclized by air oxidation)
Which Kd [4] does the source give for B3 here?
The Kd was 35 µM.

Reference: paper PMC11309765, “Mechanism of the blood-brain barrier modulation by cadherin peptides” (Exploration of drug science, 2024)
